From ChEMBL document CHEMBL1134040, “Allyl and propargyl substituted penam sulfones as versatile intermediates toward the syntheses of new beta-lactamase inhibitors” (Bioorg Med Chem Lett, 2001) come the findings set out here.

One experiment deals with Beta-lactamase (Escherichia coli K-12, UniProt P00811). Briefly: In vitro inhibitory concentration against AmpC enzyme.
In experiment [1] the target is Metallo-beta-lactamase type 2 (Bacteroides fragilis, UniProt P25910). The experiment is described as follows: In vitro inhibitory concentration against CCRA enzyme.
Sequence of Metallo-beta-lactamase type 2 (P25910 whole entry): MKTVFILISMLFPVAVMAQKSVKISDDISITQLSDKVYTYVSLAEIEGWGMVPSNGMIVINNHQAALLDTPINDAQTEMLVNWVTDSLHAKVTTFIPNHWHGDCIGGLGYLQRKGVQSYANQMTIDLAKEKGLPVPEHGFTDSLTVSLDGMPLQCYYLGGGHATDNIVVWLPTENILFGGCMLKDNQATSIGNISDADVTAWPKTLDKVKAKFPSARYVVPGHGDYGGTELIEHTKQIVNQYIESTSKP
The next experiment concerns the target Beta-lactamase TEM (Escherichia coli, UniProt P62593). Briefly: In vitro inhibitory concentration against TEM-1 enzyme.
Experiment [2] deals with Escherichia coli. Briefly: In vitro antibacterial activity against TEM-1 producing Escherichia coli (GC2206). Type of experiment: functional.
Experiment [3] deals with Escherichia coli. Briefly: In vitro antibacterial activity against AmpC producing Escherichia coli (GC2894). Type of experiment: functional.

Values after ≈ are worked out from the molar mass of the structure shown.

Sequence of Beta-lactamase TEM (P62593 whole entry): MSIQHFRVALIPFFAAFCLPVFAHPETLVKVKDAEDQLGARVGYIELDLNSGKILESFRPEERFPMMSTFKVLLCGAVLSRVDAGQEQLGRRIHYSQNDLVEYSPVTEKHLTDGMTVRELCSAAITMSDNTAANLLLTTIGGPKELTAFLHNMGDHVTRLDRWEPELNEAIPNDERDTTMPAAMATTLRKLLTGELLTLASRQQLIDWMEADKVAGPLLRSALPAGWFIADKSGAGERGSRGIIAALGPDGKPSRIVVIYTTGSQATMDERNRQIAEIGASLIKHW
Sequence of Beta-lactamase (P00811 whole entry): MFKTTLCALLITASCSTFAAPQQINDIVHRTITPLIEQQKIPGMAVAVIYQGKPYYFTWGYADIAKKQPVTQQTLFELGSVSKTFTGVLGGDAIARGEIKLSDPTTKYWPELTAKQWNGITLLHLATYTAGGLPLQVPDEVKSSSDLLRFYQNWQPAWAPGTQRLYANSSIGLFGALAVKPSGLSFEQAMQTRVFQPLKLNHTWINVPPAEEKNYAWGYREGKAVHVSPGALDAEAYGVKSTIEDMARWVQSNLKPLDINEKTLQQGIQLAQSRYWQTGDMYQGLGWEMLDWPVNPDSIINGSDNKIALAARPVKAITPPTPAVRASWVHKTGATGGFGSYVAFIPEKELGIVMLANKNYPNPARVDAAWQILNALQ

By IC50 is commonly meant the concentration that gives 50% inhibition. Read a high IC50 as weaker potency in that assay. Consider `CC1(C)[C@H](C(=O)O)N2C(=O)C(C/C=C/C=O)[C@H]2S1(=O)=O` (some centres undefined), for which the IC50 was 17 µM against Beta-lactamase, above 100 µM in experiment [1] and 12 µM against Beta-lactamase TEM.

Regarding `CC1(C)[C@H](C(=O)O)N2C(=O)[C@@H](Cc3cn(-c4ccc(O)cc4)nn3)[C@H]2S1(=O)=O`, the IC50 is 2.3 µM against Beta-lactamase, 2.1 µM in experiment [1] and 0.7 µM against Beta-lactamase TEM.

Take `CON(C)C(=O)/C=C/CC1C(=O)N2[C@@H](C(=O)O)C(C)(C)S(=O)(=O)[C@H]12` (some centres undefined): the half-inhibitory concentration (IC50) on Beta-lactamase was 17 µM; in experiment [1], above 100 µM.

Broadly, the MIC is the least concentration at which growth counts as inhibited. A low value points to greater potency. As for `C[C@]1(Cn2ccnn2)[C@H](C(=O)O)N2C(=O)C[C@H]2S1(=O)=O` [TAZOBACTAM], the figures for the minimum inhibitory concentration (MIC) against Escherichia coli [2] and in the experiment with Escherichia coli [3] were 2 µg/mL (≈ 6.66 µM) and 16 µg/mL (≈ 53.3 µM), respectively.

In the case of `CC1(C)[C@H](C(=O)O)N2C(=O)[C@@H](Cc3cn(CC(N)Cc4ccc(O)cc4)nn3)[C@H]2S1(=O)=O` (some centres undefined), the IC50 on Beta-lactamase came to 6.6 µM; in experiment [1] it was 24 µM; against Beta-lactamase TEM, 15 µM.

For the molecule `CC(=O)/C=C/CC1C(=O)N2[C@@H](C(=O)O)C(C)(C)S(=O)(=O)[C@@H]12` (some centres undefined), the IC50 at Beta-lactamase was determined as 40 µM; in experiment [1], 3 µM; at Beta-lactamase TEM it was 6.5 µM.

As to `CC(=O)/C=C/CC1C(=O)N2[C@@H](C(=O)O)C(C)(C)S(=O)(=O)[C@H]12` (some centres undefined), the results for the IC50 (against Beta-lactamase; in experiment [1]; at Beta-lactamase TEM) were 100 µM, 71 µM and 8.4 µM, respectively.

Consider `CC1(C)[C@H](C(=O)O)N2C(=O)[C@@H](Cc3cn(CC4CCCN4)nn3)[C@H]2S1(=O)=O` (some centres undefined), for which the IC50 stood at 5.2 µM against Beta-lactamase, 22 µM in experiment [1] and 7.9 µM against Beta-lactamase TEM.

Turning to `CC1(C)[C@H](C(=O)O)N2C(=O)[C@@H](Cc3cn(-c4ccccc4)nn3)[C@H]2S1(=O)=O`, the values for the IC50 (on Beta-lactamase; in experiment [1]; against Beta-lactamase TEM) were 3.4 µM, above 100 µM and 1 µM, respectively.

Take `CC1(C)[C@H](C(=O)O)N2C(=O)[C@@H](Cc3cn(-c4ccc(F)cc4)nn3)[C@H]2S1(=O)=O`: the IC50 at Beta-lactamase is 3 µM; in experiment [1] it was 4.1 µM; at Beta-lactamase TEM, 1.6 µM.

With `CCN1CCN(C(=O)N[C@@H](C(=O)N[C@@H]2C(=O)N3[C@@H]2SC(C)(C)[C@@H]3C(=O)O)c2ccccc2)C(=O)C1=O` [PIPERACILLIN], the MIC in the experiment with Escherichia coli [2] and with Escherichia coli [3] was above 64 µg/mL in each case.

Take `COC(=O)/C=C/CC1C(=O)N2[C@@H](C(=O)O)C(C)(C)S(=O)(=O)[C@@H]12` (some centres undefined): the results for the IC50 (against Beta-lactamase; in experiment [1]; on Beta-lactamase TEM) were 64 µM, 1.4 µM and 2.8 µM, respectively.

Take `CC1(C)[C@H](C(=O)O)N2C(=O)C(C/C=C/C#N)[C@@H]2S1(=O)=O` (some centres undefined): the IC50 is above 100 µM against Beta-lactamase, 3.1 µM in experiment [1] and 24 µM on Beta-lactamase TEM.

For the molecule `CC1(C)[C@H](C(=O)O)N2C(=O)[C@@H](Cc3cn(-c4ccc(N)cc4)nn3)[C@H]2S1(=O)=O`, the half-inhibitory concentration (IC50) at Beta-lactamase turned out to be 1.4 µM; in experiment [1], 1.8 µM; on Beta-lactamase TEM, 0.6 µM. In addition, the minimal inhibitory concentration (MIC) came to 32 µg/mL (≈ 78.9 µM) in the experiment with Escherichia coli [2] and 64 µg/mL (≈ 158 µM) against Escherichia coli [3].

For `COC(=O)/C=C/CC1C(=O)N2[C@@H](C(=O)O)C(C)(C)S(=O)(=O)[C@H]12` (some centres undefined), the IC50 was 29 µM against Beta-lactamase, above 100 µM in experiment [1] and 8.6 µM at Beta-lactamase TEM.
